According to patent US20210395210A1, “INHIBITION OF BACTERIAL CHAPERONIN SYSTEMS” (THE TRUSTEES OF INDIANA UNIVERSITY, priority 2018, published 2021):
Read-outs that look alike come from different tables or passages of the source.

Tests used:
[1] = system: Pseudomonas aeruginosa (ATCC 10145); test: Bacterial proliferation assay, P. aeruginosa; assay type: cell-based
Source text: Bacterial Strains: Enterococcus faecium—(Orla-Jensen) Schleifer and Kilpper-Balz strain NCTC 7171 (ATCC 19434); Drug sensitive Staphylococcus aureus—Rosenbranch strain Seattle 1945 (ATCC 25923); Methicillin resistant S. aureus (MRSA)—Rosenbach strain HPV107 (ATCC BAA-44); Klebsiella Pneumonia—(Schroeter) Trevisan strain NCTC 9633 (ATCC 13883); Acinetobacter baumannii—Bouvet and Grimont strain 2208 (ATCC 19606); Pseudomonas aeruginosa—(Schroeter) Migula strain NCTC 10332 (ATCC 10145); Enterobacter cloacae—E. cloacae, subsp. cloacae (Jordan) Hormaeche and Edwards strain CDC 442-68 (ATCC 13047).
Growth Media: All bacteria were grown in Brain Heart Infusion (BHI) broth/agar (Becton, Dickinson and Company). All liquid cultures were grown in BHI media supplemented with 25 mg/L Ca^2+ and 12.5 mg/L Mg^2+ to mimic free physiological concentrations of these cations. A 10 mg/mL Ca^2+ stock solution was prepared by dissolving 3.68 g of CaCl2.2H2O in 100 mL of deionized water, and a 10 mg/mL Mg^2+ stock solution was prepared by dissolving 8.36 g of MgCl2.6H2O in 100 mL deionized water. Both stock solutions were filter-sterilized using 0.2 μm pore size cellulose-acetate filters. 2.5 mL of the sterile 10 mg/mL Ca^2+ stock and 1.25 mL of the sterile 10 mg/mL Mg^2+ stock solutions were added per 1 L of autoclaved BHI medium to obtain 25 mg/L Ca^2+ and 12.5 mg/L Mg^2+ ions, respectively.
General Assay Protocol: Stock bacterial cultures were streaked onto BHI agar plates and grown overnight at 37° C. Fresh aliquots of broth were inoculated with single bacterial colonies and the cultures were grown overnight at 37° C. with shaking (240 rpm) in cation adjusted BHI media. The following morning, the overnight cultures were sub-cultured (1:5 dilution) into fresh aliquots of cation adjusted BHI media and grown at 37° C. for 1-2 hours with shaking. After 2 h, cultures were diluted into fresh media to achieve final OD600 readings of 0.017. Aliquots of these diluted cultures (30 μL) were added to clear, flat-bottom, 384-well polystyrene plates that were stamped with 0.5 μL of test compounds in 20 μL media. […] Plates were sealed with “Breathe Easy” oxygen permeable membranes (Diversified Biotech) and left to incubate at 37° C. without shaking (stagnant assay). OD600 nm readings were taken at either 6-8 h (S. aureus, MRSA, K. pneumonia, E. cloacae, and P. aeruginosa) or 24 h (E. faecium and A. baumannii). A second set of baseline control plates were prepared analogously, but without any bacteria added, to correct for possible compound absorbance and/or precipitation. Plates were then read at 600 nm using a Molecular Devices SpectraMax Plus384 microplate reader. […] Results presented represent the averages of EC50 values obtained from at quadriplicate (duplicate of duplicate) replicates.

human HSP60/10 = target: T1, human HSP60/10 (Homo sapiens, UniProt P10809); test: HSP60/10-mediated dMDH refolding assay; assay type: biochemical; settings: human HSP60/10-dMDH refolding assay
T1 construct: octa-Histidine tag (TEV-cleavable) (N, cleaved yes); made in house; host or cells: HSP60 in E. coli Rosetta 2 (DE3); HSP10 in Rosetta 2 (DE3) pLysS
Experimental: Reagent preparation: For these assays, four primary reagent stocks were prepared: 1) GroEUES-dMDH or HSP60/10-dMDH binary complex stock; 2) ATP initiation stock; 3) EDTA quench stock; 4) MDH enzymatic assay stock. Denatured MDH (dMDH) was prepared by 2-fold dilution of MDH (5 mg/ml, soluble pig heart MDH from Roche, product #10127248001) with denaturant buffer (7 M guanidine-HCl, 200 mM Tris, pH 7.4, and 50 mM DTT). MDH was completely denatured by incubating at room temperature for 45 min. The binary complex solutions were prepared by slowly adding the dMDH stock to a stirring stock with GroEL (or HSP60) in folding buffer (50 mM Tris-HCl, pH 7.4, 50 mM KCl, 10 mM MgCl2, and 1 mM DTT), followed by addition of GroES (or HSP10). The binary complex stocks were prepared immediately prior to dispensing into the assay plates and had final protein concentrations of 83.3 nM GroEL (Mr 800 kDa) or HSP60 (Mr 400 kDa), 100 nM GroES or HSP10 (Mr 70 kDa), and 20 nM dMDH in folding buffer. For the ATP initiation stock, ATP solid was diluted into folding buffer to a final concentration of 2.5 mM. Quench solution contained 600 mM EDTA (pH 8.0). The MDH enzymatic assay stock consisted of 20 mM sodium mesoxalate and 2.4 mM NADH in reaction buffer (50 mM Tris-HCl, pH 7.4, 50 mM KCl, and 1 mM DTT).
Assay Protocol: First, 30 μL aliquots of the GroEL/ES-dMDH or HSP60/10-dMDH binary complex stocks were dispensed into clear, 384-well polystyrene plates. […] The chaperonin-mediated refolding cycles were initiated by addition of 20 μL of ATP stock (reagent concentrations during refolding cycle: 50 nM GroEL or HSP60, 60 nM GroES or HSP10, 12 nM dMDH, 1 mM ATP, and compounds of 100 μM to 46 nM, 3-fold dilution series). The refolding reactions were incubated at 37° C. […] Next, the assay was quenched by addition of 10 μL of the EDTA to final concentration of 100 mM. […] A340 nm measurements were recorded at 0.5 minutes (start point) and at successive time points until the amount of NADH consumed reached ˜90% (end point, generally between 20-35 minutes). The differences between the start and end point A340 values were used to calculate the % inhibition of the GroEL/ES or HSP60/10 machinery by the compounds. […] Results presented represent the averages of IC50 values obtained from at least quadriplicate (duplicate of duplicate) replicates.

[2] = ATCC10145, OD600 at 6-8 h, read-out: Bacterial Proliferation EC50 P. aeruginosa
[3] = ATCC10145, log of EC50 (μM scale), with standard deviation, read-out: log(EC50) Bacterial Proliferation Assay P. aeruginosa (converted)
[4] = read-out: HSP60/10-dMDH Refolding IC50
[5] = log(IC50) ± standard deviation, read-out: HSP60/10-dMDH Refolding Assay log(IC50) (converted)

T1 sequence (P10809 27-573): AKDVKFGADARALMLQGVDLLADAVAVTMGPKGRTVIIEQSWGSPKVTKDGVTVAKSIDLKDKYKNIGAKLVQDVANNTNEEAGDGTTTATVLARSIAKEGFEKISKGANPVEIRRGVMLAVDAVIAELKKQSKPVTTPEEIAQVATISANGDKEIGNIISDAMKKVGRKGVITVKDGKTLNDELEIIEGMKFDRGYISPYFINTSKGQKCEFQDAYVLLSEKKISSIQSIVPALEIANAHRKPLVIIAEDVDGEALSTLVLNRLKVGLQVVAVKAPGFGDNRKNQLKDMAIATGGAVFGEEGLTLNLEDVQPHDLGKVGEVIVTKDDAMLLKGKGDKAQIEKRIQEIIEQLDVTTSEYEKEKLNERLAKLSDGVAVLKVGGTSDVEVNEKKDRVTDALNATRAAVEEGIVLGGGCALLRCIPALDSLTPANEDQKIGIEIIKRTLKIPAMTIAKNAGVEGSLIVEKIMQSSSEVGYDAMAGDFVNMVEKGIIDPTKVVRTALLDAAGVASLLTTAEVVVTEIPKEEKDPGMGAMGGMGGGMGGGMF

O=C(Nc1ccc(Sc2nc3ccccc3s2)cc1)c1cc(Br)cc(Br)c1 [Compound 20, N-(4-(Benzo[d]thiazol-2-ylthio)phenyl)-3,5-dibromobenzamide]
> 100 µM: EC50 [1, 2] | EC50 [1, 3] | IC50 (human HSP60/10; [4]) | IC50 (human HSP60/10; [5])

O=C(Nc1ccc(Sc2nc3ccccc3s2)cc1)c1cccc(Br)c1 [Compound 21, N-(4-(Benzo[d]thiazol-2-ylthio)phenyl)-3-bromobenzamide]
> 100 µM: EC50 [1, 2] | EC50 [1, 3] | IC50 (human HSP60/10; [4]) | IC50 (human HSP60/10; [5])

O=C(Nc1ccc(Sc2nc3ccccc3s2)cc1)c1ccccc1 [Compound 22, N-(4-(Benzo[d]thiazol-2-ylthio)phenyl)benzamide]
> 100 µM: EC50 [1, 2] | EC50 [1, 3] | IC50 (human HSP60/10; [4]) | IC50 (human HSP60/10; [5])

O=C(Nc1cccc(Cl)c1)c1cc(Br)cc(Br)c1 [Compound 23, 3,5-Dibromo-N-(3-chlorophenyl)benzamide]
> 100 µM: EC50 [1, 2] | EC50 [1, 3] | IC50 (human HSP60/10; [4]) | IC50 (human HSP60/10; [5])

O=C(Nc1cccc(Cl)c1)c1cccc(Br)c1 [Compound 24, 3-Bromo-N-(3-chlorophenyl)benzamide]
> 100 µM: EC50 [1, 2] | EC50 [1, 3] | IC50 (human HSP60/10; [4]) | IC50 (human HSP60/10; [5])

O=C(Nc1cccc(Cl)c1)c1ccccc1 [Compound 25, N-(3-Chlorophenyl)benzamide]
> 100 µM: EC50 [1, 2] | EC50 [1, 3] | IC50 (human HSP60/10; [4]) | IC50 (human HSP60/10; [5])

O=C(Nc1ccccc1)c1cc(Br)cc(Br)c1 [Compound 26, 3,5-Dibromo-N-phenylbenzamide]
> 100 µM: EC50 [1, 2] | EC50 [1, 3] | IC50 (human HSP60/10; [4]) | IC50 (human HSP60/10; [5])

O=C(Nc1ccccc1)c1cccc(Br)c1 [Compound 27, 3-Bromo-N-phenylbenzamide]
> 100 µM: EC50 [1, 2] | EC50 [1, 3] | IC50 (human HSP60/10; [4]) | IC50 (human HSP60/10; [5])

COc1c(Br)cc(Br)cc1C(=O)Nc1ccc(Sc2nc3ccccc3s2)c(Cl)c1 [Compound 29, N-(4-(Benzo[d]thiazol-2-ylthio)-3-chlorophenyl)-3,5-dibromo-2-methoxybenzamide]
> 100 µM: EC50 [1, 2] | EC50 [1, 3] | IC50 (human HSP60/10; [4]) | IC50 (human HSP60/10; [5])

COc1c(Br)cccc1C(=O)Nc1ccc(Sc2nc3ccccc3s2)c(Cl)c1 [Compound 30, N-(4-(Benzo[d]thiazol-2-ylthio)-3-chlorophenyl)-3-bromo-2-methoxybenzamide]
> 100 µM: EC50 [1, 2] | EC50 [1, 3] | IC50 (human HSP60/10; [4]) | IC50 (human HSP60/10; [5])

COc1ccc(Br)cc1C(=O)Nc1ccc(Sc2nc3ccccc3s2)c(Cl)c1 [Compound 31, N-(4-(Benzo[d]thiazol-2-ylthio)-3-chlorophenyl)-5-bromo-2-methoxybenzamide]
> 100 µM: EC50 [1, 2] | EC50 [1, 3] | IC50 (human HSP60/10; [4]) | IC50 (human HSP60/10; [5])

COc1ccccc1C(=O)Nc1ccc(Sc2nc3ccccc3s2)c(Cl)c1 [Compound 32, N-(4-(Benzo[d]thiazol-2-ylthio)-3-chlorophenyl)-2-methoxybenzamide]
> 100 µM: EC50 [1, 2] | EC50 [1, 3] | IC50 (human HSP60/10; [4]) | IC50 (human HSP60/10; [5])

COc1c(Br)cc(Br)cc1C(=O)Nc1ccc(Sc2nc3ccccc3s2)cc1 [Compound 33, N-(4-(Benzo[d]thiazol-2-ylthio)phenyl)-3,5-dibromo-2-methoxybenzamide]
> 100 µM: EC50 [1, 2] | EC50 [1, 3] | IC50 (human HSP60/10; [4]) | IC50 (human HSP60/10; [5])

COc1c(Br)cccc1C(=O)Nc1ccc(Sc2nc3ccccc3s2)cc1 [Compound 34, N-(4-(Benzo[d]thiazol-2-ylthio)phenyl)-3-bromo-2-methoxybenzamide]
> 100 µM: EC50 [1, 2] | EC50 [1, 3] | IC50 (human HSP60/10; [4]) | IC50 (human HSP60/10; [5])

COc1ccc(Br)cc1C(=O)Nc1ccc(Sc2nc3ccccc3s2)cc1 [Compound 35, N-(4-(Benzo[d]thiazol-2-ylthio)phenyl)-5-bromo-2-methoxybenzamide]
> 100 µM: EC50 [1, 2] | EC50 [1, 3] | IC50 (human HSP60/10; [4]) | IC50 (human HSP60/10; [5])

COc1ccccc1C(=O)Nc1ccc(Sc2nc3ccccc3s2)cc1 [Compound 36, N-(4-(Benzo[d]thiazol-2-ylthio)phenyl)-2-methoxybenzamide]
> 100 µM: EC50 [1, 2] | EC50 [1, 3] | IC50 (human HSP60/10; [4]) | IC50 (human HSP60/10; [5])

COc1c(Br)cc(Br)cc1C(=O)Nc1cccc(Cl)c1 [Compound 37, 3,5-Dibromo-N-(3-chlorophenyl)-2-methoxybenzamide]
> 100 µM: EC50 [1, 2] | EC50 [1, 3] | IC50 (human HSP60/10; [4]) | IC50 (human HSP60/10; [5])

COc1c(Br)cccc1C(=O)Nc1cccc(Cl)c1 [Compound 38]
> 100 µM: EC50 [1, 2] | EC50 [1, 3] | IC50 (human HSP60/10; [4]) | IC50 (human HSP60/10; [5])

COc1ccc(Br)cc1C(=O)Nc1cccc(Cl)c1 [Compound 39, 5-Bromo-N-(3-chlorophenyl)-2-methoxybenzamide]
> 100 µM: EC50 [1, 2] | EC50 [1, 3] | IC50 (human HSP60/10; [4]) | IC50 (human HSP60/10; [5])

COc1ccccc1C(=O)Nc1cccc(Cl)c1 [Compound 40, N-(3-Chlorophenyl)-2-methoxybenzamide]
> 100 µM: EC50 [1, 2] | EC50 [1, 3] | IC50 (human HSP60/10; [4]) | IC50 (human HSP60/10; [5])

COc1c(Br)cc(Br)cc1C(=O)Nc1ccccc1 [Compound 41, 3,5-Dibromo-2-methoxy-N-phenylbenzamide]
> 100 µM: EC50 [1, 2] | EC50 [1, 3] | IC50 (human HSP60/10; [4]) | IC50 (human HSP60/10; [5])

COc1c(Br)cccc1C(=O)Nc1ccccc1 [Compound 42, 3-Bromo-2-methoxy-N-phenylbenzamide]
> 100 µM: EC50 [1, 2] | EC50 [1, 3] | IC50 (human HSP60/10; [4]) | IC50 (human HSP60/10; [5])

COc1ccc(Br)cc1C(=O)Nc1ccccc1 [Compound 43, 5-Bromo-2-methoxy-N-phenylbenzamide]
> 100 µM: EC50 [1, 2] | EC50 [1, 3] | IC50 (human HSP60/10; [4]) | IC50 (human HSP60/10; [5])
